Assay results from PubChem BioAssay AID330 (DTP/NCI, 2004).
Values joined by “and” are separate entries in the source; they are usually repeats but may differ in a detail not shown here. Equal entries are not always repeated. Toxic doses and inconclusive results are not listed. The calls were made as follows: active = survival T/C of 150% or more; inactive = T/C below 125% in these data. Peptide text beside a SMILES is read from it.

Test system: P388 leukemia ip, CD2F1 mice, survival T/C
Assay: NCI In Vivo Anticancer Drug Screen. Data for tumor model P388 Leukemia (intraperitoneal) in CD2F1 (CDF1) mice
Details: endpoint: median survival time, higher = longer survival
Procedure, shortened: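 Mice carrying the transplanted tumor received test compound or vehicle. Survival was recorded in each group, and the value is the treated-group measurement divided by that of the vehicle-treated control group.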

[1] = dose: 50.0 mg/kg/injection, schedule: Q01DX005 (ip), vehicle: saline with Tween-80
[2] = dose: 200.0 mg/kg/injection, schedule: Q01DX005 (ip), vehicle: saline with Tween-80
[3] = dose: 50.0 mg/kg/injection, schedule: Q01DX009 (ip), vehicle: Klucel (hydroxypropylcellulose) (HPC)
[4] = dose: 100.0 mg/kg/injection, schedule: Q01DX009 (ip), vehicle: Klucel (hydroxypropylcellulose) (HPC)
[5] = dose: 50.0 mg/kg/injection, schedule: Q04DX002 (ip), vehicle: saline with Tween-80
[6] = dose: 100.0 mg/kg/injection, schedule: Q04DX002 (ip), vehicle: saline with Tween-80
[7] = dose: 200.0 mg/kg/injection, schedule: Q04DX002 (ip), vehicle: saline with Tween-80
[8] = dose: 100.0 mg/kg/injection, schedule: Q01DX009 (ip), vehicle: saline
[9] = dose: 200.0 mg/kg/injection, schedule: Q01DX009 (ip), vehicle: saline

Measured: T/C

CC(Oc1ccccc1)C(=O)N=c1scc(-c2ccc(Br)cc2)n1-c1cccc2ccccc12 (stereo not drawn)
inactive: dose: 6.25 mg/kg/injection, schedule: Q01DX009 (ip), vehicle: gum acacia 106 % of control | dose: 12.5 mg/kg/injection, schedule: Q01DX009 (ip), vehicle: gum acacia 106 % of control | dose: 25.0 mg/kg/injection, schedule: Q01DX009 (ip), vehicle: gum acacia 105 % of control | dose: 50.0 mg/kg/injection, schedule: Q01DX009 (ip), vehicle: gum acacia 101 % of control | dose: 100.0 mg/kg/injection, schedule: Q01DX009 (ip), vehicle: gum acacia 92 % of control | dose: 200.0 mg/kg/injection, schedule: Q01DX009 (ip), vehicle: gum acacia 98 % of control

O=C(O)Cc1cccc(=O)c(O)c1C(=O)O
inactive: [1] 98 % of control | dose: 100.0 mg/kg/injection, schedule: Q01DX005 (ip), vehicle: saline with Tween-80 104 % of control | [2] 96 % of control

COc1ccc(OC)c(C2N(C)CCCN2C)c1
inactive: dose: 6.25 mg/kg/injection, schedule: Q01DX009 (ip), vehicle: saline sonified 95 % of control | dose: 12.5 mg/kg/injection, schedule: Q01DX009 (ip), vehicle: saline sonified 90 % of control | dose: 25.0 mg/kg/injection, schedule: Q01DX009 (ip), vehicle: saline sonified 100 % of control

CC1(C)CC(OS(C)(=O)=O)CC(C)(C)N1O
inactive: [3] 100 % of control | [4] 99 % of control

C/C(=N\N/C(N)=N/S(=O)(=O)c1ccc(C)cc1)c1ccc(C)cc1
inactive: [5] 100 % of control | [6] 97 % of control | [7] 98 % of control

C=C(C)C12CC(C)C34OC(CCCCCCCCC)(OC1C3C1OC1(CO)C(O)C1(O)C(=O)C(C)=CC14)O2 (stereo not drawn)
inactive: dose: 3.0 micrograms/kg/injection, schedule: Q01DX009 (ip), vehicle: saline + alcohol 107 % of control | dose: 5.0 micrograms/kg/injection, schedule: Q01DX009 (ip), vehicle: saline + alcohol 109 % of control | dose: 10.0 micrograms/kg/injection, schedule: Q01DX009 (ip), vehicle: saline + alcohol 105 % of control | dose: 20.0 micrograms/kg/injection, schedule: Q01DX009 (ip), vehicle: saline + alcohol 109 % of control | dose: 40.0 micrograms/kg/injection, schedule: Q01DX009 (ip), vehicle: saline + alcohol 116 % of control

COc1cc(O)c2c(=O)c3c(O)c(OC4OC(COC5OC(C)C(O)C(O)C5O)C(O)C(O)C4O)ccc3oc2c1 (stereo not drawn)
inactive: dose: 1.5 mg/kg/injection, schedule: Q01DX009 (ip), vehicle: saline 107 % of control | dose: 3.0 mg/kg/injection, schedule: Q01DX009 (ip), vehicle: saline 103 % of control | dose: 6.0 mg/kg/injection, schedule: Q01DX009 (ip), vehicle: saline 100 % of control | dose: 12.0 mg/kg/injection, schedule: Q01DX009 (ip), vehicle: saline 99 % of control

CN1CNC(=S)NC1
inactive: dose: 50.0 mg/kg/injection, schedule: Q01DX009 (ip), vehicle: saline 105 % of control | [8] 102 % of control | [9] 101 % of control

NC1=NN(O)C2=CC(F)C=CC2=N1 (stereo not drawn)
inactive: [3] 103 % of control and 91 % of control | [4] 101 % of control and 114 % of control and 92 % of control | dose: 200.0 mg/kg/injection, schedule: Q01DX009 (ip), vehicle: Klucel (hydroxypropylcellulose) (HPC) 100 % of control and 91 % of control | dose: 400.0 mg/kg/injection, schedule: Q01DX009 (ip), vehicle: Klucel (hydroxypropylcellulose) (HPC) 105 % of control

CCCCOc1cccc2c(NCCCCCCCCNc3c4ccccc4nc4c(OCCCC)cccc34)c3ccccc3nc12
inactive: dose: 0.62 mg/kg/injection, schedule: Q## X009 (ip), vehicle: lactic acid 107 % of control | dose: 1.25 mg/kg/injection, schedule: Q## X009 (ip), vehicle: lactic acid 99 % of control | dose: 2.5 mg/kg/injection, schedule: Q## X009 (ip), vehicle: lactic acid 99 % of control | dose: 5.0 mg/kg/injection, schedule: Q## X009 (ip), vehicle: lactic acid 106 % of control | dose: 10.0 mg/kg/injection, schedule: Q## X009 (ip), vehicle: lactic acid 91 % of control

COC1NC(=O)N(C)N(C)C1=O (stereo not drawn)
inactive: dose: 50.0 mg/kg/injection, schedule: Q01DX005 (ip), vehicle: saline 100 % of control | dose: 100.0 mg/kg/injection, schedule: Q01DX005 (ip), vehicle: saline 99 % of control | dose: 200.0 mg/kg/injection, schedule: Q01DX005 (ip), vehicle: saline 100 % of control

COc1cccc(C(c2cc3c(cc2O)OCO3)N2CCCC2)c1O (stereo not drawn)
inactive: dose: 60.0 mg/kg/injection, schedule: Q01DX005 (ip), vehicle: Klucel (hydroxypropylcellulose) (HPC) 109 % of control | dose: 120.0 mg/kg/injection, schedule: Q01DX005 (ip), vehicle: Klucel (hydroxypropylcellulose) (HPC) 109 % of control | dose: 240.0 mg/kg/injection, schedule: Q01DX005 (ip), vehicle: Klucel (hydroxypropylcellulose) (HPC) 115 % of control

Cc1ccc(C(=O)Cc2nc(C#N)c(C#N)nc2CC(=O)c2ccc(C)cc2)cc1
inactive: dose: 60.0 mg/kg/injection, schedule: Q01DX005 (ip), vehicle: saline with Tween-80 112 % of control | dose: 120.0 mg/kg/injection, schedule: Q01DX005 (ip), vehicle: saline with Tween-80 120 % of control

CCSC(C(OC(C)=O)C(OC(C)=O)C(OC(C)=O)C(COC(C)=O)OC(C)=O)n1cnc2c(=S)nc[nH]c21 (stereo not drawn)
inactive: [1] 107 % of control | [2] 87 % of control

CC(N)C(=O)NCC(=O)NC(CO)C(=O)NC(CCC(=O)O)C(=O)O (stereo not drawn) (H-AGSE-OH; configuration not given here)
inactive: dose: 9.0 mg/kg/injection, schedule: Q01DX005 (ip), vehicle: water 96 % of control | dose: 18.0 mg/kg/injection, schedule: Q01DX005 (ip), vehicle: water 102 % of control | dose: 36.0 mg/kg/injection, schedule: Q01DX005 (ip), vehicle: water 100 % of control | dose: 72.0 mg/kg/injection, schedule: Q01DX005 (ip), vehicle: water 110 % of control | dose: 144.0 mg/kg/injection, schedule: Q01DX005 (ip), vehicle: water 103 % of control

COC(C(OC)N1CCOCC1)N1CCOCC1 (stereo not drawn)
inactive: dose: 50.0 mg/kg/injection, schedule: Q01DX009 (ip), vehicle: saline with Tween-80 100 % of control | dose: 100.0 mg/kg/injection, schedule: Q01DX009 (ip), vehicle: saline with Tween-80 104 % of control | dose: 200.0 mg/kg/injection, schedule: Q01DX009 (ip), vehicle: saline with Tween-80 113 % of control

CCCCCCCCCCCCC(=O)CCCCC(=O)OC1OCC23OC2C2CC(C)(C)CC2C2(C)CC123 (stereo not drawn)
inactive: dose: 10.0 mg/kg/injection, schedule: Q01DX005 (ip), vehicle: olive oil, sesame oil, peanut oil 105 % of control | dose: 20.0 mg/kg/injection, schedule: Q01DX005 (ip), vehicle: olive oil, sesame oil, peanut oil 95 % of control | dose: 40.0 mg/kg/injection, schedule: Q01DX005 (ip), vehicle: olive oil, sesame oil, peanut oil 101 % of control | dose: 80.0 mg/kg/injection, schedule: Q01DX005 (ip), vehicle: olive oil, sesame oil, peanut oil 94 % of control

O=C1CCSC(=S)N1c1ccc(F)cc1F
inactive: dose: 6.25 mg/kg/injection, schedule: Q01DX009 (ip), vehicle: saline 92 % of control | dose: 12.5 mg/kg/injection, schedule: Q01DX009 (ip), vehicle: saline 94 % of control | dose: 25.0 mg/kg/injection, schedule: Q01DX009 (ip), vehicle: saline 91 % of control | [8] 96 % of control | [9] 90 % of control | dose: 200.0 mg/kg/injection, schedule: Q01DX009 (ip), vehicle: suspension in saline 92 % of control

CC(=O)N(O)c1ccc(Cl)cc1
inactive: dose: 25.0 mg/kg/injection, schedule: Q04DX002 (ip), vehicle: saline with Tween-80 100 % of control | [5] 102 % of control | [6] 100 % of control | [7] 105 % of control

[O-][n+]1c2ccccc2nc2ccccc21
inactive: dose: 50.0 mg/kg/injection, schedule: Q01DX005 (ip), vehicle: Klucel (hydroxypropylcellulose) (HPC) 115 % of control | dose: 100.0 mg/kg/injection, schedule: Q01DX005 (ip), vehicle: Klucel (hydroxypropylcellulose) (HPC) 110 % of control | dose: 200.0 mg/kg/injection, schedule: Q01DX005 (ip), vehicle: Klucel (hydroxypropylcellulose) (HPC) 100 % of control

CCOC(=O)C1CCc2ccc(OC)c(OC)c2C1 (stereo not drawn)
inactive: dose: 12.5 mg/kg/injection, schedule: Q01DX009 (ip), vehicle: other 100 % of control | dose: 25.0 mg/kg/injection, schedule: Q01DX009 (ip), vehicle: other 97 % of control | dose: 50.0 mg/kg/injection, schedule: Q01DX009 (ip), vehicle: other 105 % of control | dose: 100.0 mg/kg/injection, schedule: Q01DX009 (ip), vehicle: other 100 % of control | dose: 200.0 mg/kg/injection, schedule: Q01DX009 (ip), vehicle: other 110 % of control
